The record followed here is publication PMC5187867, “Crystal Structure of a Putative Cytochrome P450 Alkane Hydroxylase (CYP153D17) from Sphingomonas sp. PAMC 26605 and Its Conformational Substrate Binding” (International Journal of Molecular Sciences, 2016).

The data set concerns the target CYP153D17 (Sphingomonas sp. PAMC 26605, UniProt A0ACD6BAR9). Briefly: UV-Vis spectral binding titration (substrate binding assay) of purified CYP153D17. The following applies: 1 μM CYP153D17; for Kd: apparent dissociation constant from titration curves (A390-A420); for Spin Shift (%): shift in heme spin state from low-spin (Soret maximum at 420 nm) to high-spin (390 nm). As to the method: To determine the binding affinity of CYP153D17, spectral binding titrations were performed with the alkanes (decane and dodecane) and fatty acids (capric acid, lauric acid, and myristic acid). All tested substrates changed the spectrum of CYP153D17, with a shift of the Soret band at 420 to 390 nm, which is typical of the high-spin form (Figure 2), after which the apparent dissociation constants from the titration curves (Kd values) were obtained (Table 1). Dodecane, capric acid, and lauric acid binding to CYP153D17 induced a ≥90% shift in the heme spin state from low-spin (Soret maximum at 420 nm) to high-spin (Soret maximum at 390 nm), whereas decane and myristic acid induced a ≥80% shift in the same heme spin state.
To determine whether CYP153D17 can bind alkanes and fatty acids, a UV-Vis (Ultraviolet-Visible) spectral binding titration assay was performed. Binding of the substrate to CYP153D17 induced a shift of the Soret band of the CYP absorption spectrum from A420 to A390 [30]. Alkanes (decane and dodecane) and fatty acids (capric acid, lauric acid, and myristic acid) were dissolved in ethanol to prepare stock solutions of different concentrations (0.4–5 mM) for each substrate. Binding of substrate to CYP153D17 was carried out by the consecutive addition of 1-μL aliquots from the stock solutions to 1 mL of 1 μM CYP153D17 solution, and the UV–Vis spectra of the mixture were recorded. To calculate Kd, the difference between adsorption at A390 and A420 was calculated, corrected with the A390-to-A420 value at 0 M substrate, and plotted against the substrate concentrations. The data were fitted to equations as described by Funhoff et al..

CYP153D17, sequence (A0ACD6BAR9 1-407): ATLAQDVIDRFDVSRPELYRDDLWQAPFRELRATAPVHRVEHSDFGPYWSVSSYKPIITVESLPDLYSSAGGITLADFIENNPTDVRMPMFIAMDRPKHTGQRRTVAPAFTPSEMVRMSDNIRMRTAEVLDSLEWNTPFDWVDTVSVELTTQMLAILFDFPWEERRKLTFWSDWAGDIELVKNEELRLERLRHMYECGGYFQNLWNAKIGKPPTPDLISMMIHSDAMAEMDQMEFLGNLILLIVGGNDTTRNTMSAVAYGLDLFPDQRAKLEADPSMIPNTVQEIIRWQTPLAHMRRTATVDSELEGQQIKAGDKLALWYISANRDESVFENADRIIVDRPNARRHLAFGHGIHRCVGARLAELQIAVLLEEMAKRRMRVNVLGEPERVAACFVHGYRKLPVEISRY

Take `CCCCCCCCCCCC` [Dodecane, dodecane]: the Kd amounted to 420 ± 140 nM.
Consider `CCCCCCCCCCCCCC(=O)O` [Myristic acid, myristic acid], for which the Kd is 540 ± 330 nM and the “Spin Shift (%)” value is on record as at least 80%. For the same compound, the “Spin Shift (%)” value (listed as myristic acid) is on record as at least 80%.
As to `CCCCCCCCCC` [Decane, decane], the Kd was found to be 590 ± 690 nM and the “Spin Shift (%)” value is reported as at least 80%. In addition, the “Spin Shift (%)” value (listed as decane) is at least 80%.
As to `CCCCCCCCCCCC(=O)O` [Lauric acid, lauric acid], the Kd was 490 ± 700 nM and the “Spin Shift (%)” value is given as at least 90%. The “Spin Shift (%)” value (listed as lauric acid) is reported as at least 90%.
Take `CCCCCCCCCC(=O)O` [Capric acid, capric acid]: the Kd amounted to 460 ± 410 nM and the “Spin Shift (%)” value is on record as at least 90%. For the same compound, the “Spin Shift (%)” value (listed as capric acid) is at least 90%.
